Test results taken from ChEMBL document CHEMBL4422633, “Antioxidant-Inspired Drug Discovery: Antitumor Metabolite Is Formed in Situ from a Hydroxycinnamic Acid Derivative upon Free-Radical Scavenging” (J Med Chem, 2019).
Active and inactive are the calls of the source. No cut-off for these calls is given here.

Key:
NCI-H460 [1] = experiment: Induction of ROS generation in human NCI-H460 cells assessed as increase DHE positive cells at 10 uM after 24 hrs by DHE-staining based flow cytometry; format: functional, cell-based
NCI-H661 [2] = experiment: Cytotoxicity against human NCI-H661 cells assessed as reduction in cell viability after 72 hrs by MTT assay; format: functional, cell-based; details: NCI-H661, 72 h
Homo sapiens = organism: Homo sapiens; experiment: Induction of DNA damage response in human NCI-H460/R cells transfected with MDR assessed as increase in H2AX expression at 10 uM after 24 hrs by alexa fluor 488-staining based flow cytometry; format: functional, cell-based
[3] = Induction of apoptosis in human NCI-H460/R cells transfected with MDR assessed as late apoptotic cells at 10 uM after 24 hrs by Annexin V/propidium iodide-staining based flow cytometry (reference value: 0.84 +/- 0.01%); format: functional
[4] = Cytotoxicity against mouse L5178 cells assessed as reduction in cell viability after 72 hrs by MTT assay; format: functional, cell-based; details: L5178, 72 h
HaCaT [5] = experiment: Cytotoxicity against human HaCaT cells assessed as reduction in cell viability after 72 hrs by MTT assay; format: cell-based
NCI-H460 [6] = experiment: Induction of DNA damage response in human NCI-H460 cells transfected with MDR assessed as increase in H2AX expression at 10 uM after 24 hrs by alexa fluor 488-staining based flow cytometry; format: functional, cell-based
NCI-H460 [7] = experiment: Induction of apoptosis in human NCI-H460 cells assessed as viable cells at 10 uM after 24 hrs by Annexin V/propidium iodide-staining based flow cytometry (reference value: 96.49 +/- 0.96%); format: functional; details: NCI-H460, 24 h, read-out: Activity
A549 [8] = experiment: Induction of DNA damage response in human A549 cells assessed as increase in H2AX expression at 10 uM after 24 hrs by alexa fluor 488-staining based flow cytometry; format: functional, cell-based
NCI-H460 [9] = experiment: Cytotoxicity against human NCI-H460 cells assessed as reduction in cell viability after 72 hrs by MTT assay; format: functional, cell-based; details: NCI-H460, 72 h
NCI-H460 [10] = experiment: Induction of apoptosis in human NCI-H460 cells assessed as necrotic cells at 10 uM after 24 hrs by Annexin V/propidium iodide-staining based flow cytometry (reference value: 2.13 +/- 0.02%); format: functional
A549 [11] = experiment: Induction of apoptosis in human A549 cells assessed as late apoptotic cells at 10 uM after 24 hrs by Annexin V/propidium iodide-staining based flow cytometry (reference value: 1.54 +/- 0.03%); format: functional
A549 [12] = experiment: Induction of apoptosis in human A549 cells assessed as viable cells at 10 uM after 24 hrs by Annexin V/propidium iodide-staining based flow cytometry (reference value: 96.45 +/- 2.89%); format: functional; details: A549, 24 h, read-out: Activity
[13] = Drug level using p-coumaric acid methyl ester assessed as compound formation by reverse phase-HPLC and HPLC-MS analysis based Fenton reaction assay; format: physicochemical
A549 [14] = experiment: Induction of apoptosis in human A549 cells assessed as early apoptotic cells at 10 uM after 24 hrs by Annexin V/propidium iodide-staining based flow cytometry (reference value: 0.48 +/- 0.01%); format: functional
NCI-H460 [15] = experiment: Induction of DNA damage response in human NCI-H460 cells assessed as increase in H2AX expression at 10 uM after 24 hrs by alexa fluor 488-staining based flow cytometry; format: functional, cell-based
NCI-H661 [16] = experiment: Induction of apoptosis in human NCI-H661 cells assessed as viable cells at 10 uM after 24 hrs by Annexin V/propidium iodide-staining based flow cytometry (reference value: 96.16 +/- 0.96%); format: functional; details: NCI-H661, 24 h, read-out: Activity
HaCaT [17] = experiment: Induction of apoptosis in human HaCaT cells assessed as late apoptotic cells at 10 uM after 24 hrs by Annexin V/propidium iodide-staining based flow cytometry (reference value: 2.26 +/- 0.09%); format: cell-based
HaCaT [18] = experiment: Induction of apoptosis in human HaCaT cells assessed as early apoptotic cells at 10 uM after 24 hrs by Annexin V/propidium iodide-staining based flow cytometry (reference value: 0.23 +/- 0.01%); format: cell-based
A549 [19] = experiment: Induction of ROS generation in human A549 cells assessed as increase DHE positive cells at 10 uM after 24 hrs by DHE-staining based flow cytometry; format: functional, cell-based
NCI-H460 [20] = experiment: Induction of apoptosis in human NCI-H460 cells assessed as early apoptotic cells at 10 uM after 24 hrs by Annexin V/propidium iodide-staining based flow cytometry (reference value: 0.45 +/- 0.01%); format: functional
NCI-H661 [21] = experiment: Induction of ROS generation in human NCI-H661 cells assessed as increase DHE positive cells at 10 uM after 24 hrs by DHE-staining based flow cytometry; format: functional, cell-based
A549 [22] = experiment: Induction of apoptosis in human A549 cells assessed as necrotic cells at 10 uM after 24 hrs by Annexin V/propidium iodide-staining based flow cytometry (reference value: 1.52 +/- 0.05%); format: functional
[23] = Cytotoxicity against mouse L5178B1 cells transfected with pHa MDR1/A retrovirus assessed as reduction in cell viability after 72 hrs by MTT assay; format: functional, cell-based; details: MDR1, 72 h
NCI-H661 [24] = experiment: Induction of DNA damage response in human NCI-H661 cells assessed as increase in H2AX expression at 10 uM after 24 hrs by alexa fluor 488-staining based flow cytometry; format: functional, cell-based
HaCaT [25] = experiment: Induction of DNA damage response in human HaCaT cells assessed as increase in H2AX expression at 10 uM after 24 hrs by alexa fluor 488-staining based flow cytometry; format: cell-based
HaCaT [26] = experiment: Induction of ROS generation in human HaCaT cells assessed as increase DHE positive cells at 10 uM after 24 hrs by DHE-staining based flow cytometry; format: cell-based
HaCaT [27] = experiment: Induction of apoptosis in human HaCaT cells assessed as necrotic cells at 10 uM after 24 hrs by Annexin V/propidium iodide-staining based flow cytometry (reference value: 1.88 +/- 0.02%); format: cell-based
[28] = Induction of apoptosis in human NCI-H460/R cells transfected with MDR assessed as early apoptotic cells at 10 uM after 24 hrs by Annexin V/propidium iodide-staining based flow cytometry (reference value: 0.22 +/- 0.01%); format: functional

COC(=O)/C=C/C1(O)C=CC(=O)C=C1
Activity (NCI-H460 [1]): Active
IC50 (NCI-H661 [2]): 1440 nM
Activity (Homo sapiens): Active
Activity [3]: 2.34%
IC50 [4]: 460 nM
IC50 (HaCaT [5]): 4050 nM
Activity (NCI-H460 [6]): Active
viability at 10 µM (NCI-H460 [7]): 89.1%
Activity (A549 [8]): Active
IC50 (NCI-H460 [9]): 1850 nM
Activity (NCI-H460 [10]): 7.31%
Activity (A549 [11]): 3.93%
viability at 10 µM (A549 [12]): 92.8%
Drug uptake [13]: Active
Activity (A549 [14]): 0.72%
Activity (NCI-H460 [15]): Active
viability at 10 µM (NCI-H661 [16]): 45.4%
Activity (HaCaT [17]): 2.85%
Activity (HaCaT [18]): 0.44%
Activity (A549 [19]): Active
Activity (NCI-H460 [20]): 0.21%
Activity (NCI-H661 [21]): Active
Activity (A549 [22]): 2.57%
IC50 [23]: 620 nM
Activity (NCI-H661 [24]): Active
Activity (HaCaT [25]): Non-Toxic
Activity (HaCaT [26]): Non-Toxic
Activity (HaCaT [27]): 5.21%
Activity [28]: 0.12%
